Here are results for 17 compounds from ChEMBL document CHEMBL1926625, “Identification of benzoxazin-3-one derivatives as novel, potent, and selective nonsteroidal mineralocorticoid receptor antagonists” (J Med Chem, 2011).

SMILES strings stand for the structures.

What is called IC50 is the concentration that gives 50% inhibition. Higher therefore signals weaker potency.

The target in the experiment is T1, Mineralocorticoid receptor (Homo sapiens, UniProt P08235).
T1 sequence (P08235 whole entry): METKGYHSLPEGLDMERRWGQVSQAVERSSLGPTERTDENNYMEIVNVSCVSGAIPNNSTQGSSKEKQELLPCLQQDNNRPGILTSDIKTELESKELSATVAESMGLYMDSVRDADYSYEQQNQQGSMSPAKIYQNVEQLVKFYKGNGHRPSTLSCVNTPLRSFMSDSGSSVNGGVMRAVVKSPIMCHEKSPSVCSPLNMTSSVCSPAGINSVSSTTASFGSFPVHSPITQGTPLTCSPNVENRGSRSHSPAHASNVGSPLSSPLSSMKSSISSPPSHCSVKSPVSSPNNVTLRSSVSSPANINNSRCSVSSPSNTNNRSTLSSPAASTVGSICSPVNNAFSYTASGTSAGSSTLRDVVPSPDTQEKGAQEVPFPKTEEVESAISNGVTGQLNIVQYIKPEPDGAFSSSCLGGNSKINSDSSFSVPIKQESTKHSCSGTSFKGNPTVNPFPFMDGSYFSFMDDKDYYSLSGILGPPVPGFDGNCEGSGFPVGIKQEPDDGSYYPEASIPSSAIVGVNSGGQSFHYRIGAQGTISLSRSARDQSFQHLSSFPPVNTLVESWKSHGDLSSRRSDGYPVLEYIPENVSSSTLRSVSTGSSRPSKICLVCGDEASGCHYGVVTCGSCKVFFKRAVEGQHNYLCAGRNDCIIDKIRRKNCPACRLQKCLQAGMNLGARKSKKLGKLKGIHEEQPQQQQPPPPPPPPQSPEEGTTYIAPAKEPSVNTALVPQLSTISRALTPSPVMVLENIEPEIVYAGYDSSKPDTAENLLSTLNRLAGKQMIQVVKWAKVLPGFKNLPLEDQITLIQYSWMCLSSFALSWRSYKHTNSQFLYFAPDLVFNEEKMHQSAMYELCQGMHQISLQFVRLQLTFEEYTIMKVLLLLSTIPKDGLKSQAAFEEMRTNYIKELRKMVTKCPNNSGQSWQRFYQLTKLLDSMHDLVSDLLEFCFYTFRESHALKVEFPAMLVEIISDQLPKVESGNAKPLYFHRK
Description: biochemical.
Description: Displacement of [3H]aldosterone from cytosolic human MR expressed in HEK293 cells after 16 hrs by scintillation counting
`CCCC1Sc2nncn2N=C1c1ccc2c(c1)NC(=O)CO2` (configuration not stated) came in with an IC50 of 4.1 µM.
As for `O=C1COc2ccc(C3=Nn4cnnc4SC3Cc3ccccc3)cc2N1` (configuration not stated), the figure is 1.3 µM.
As for `CC1(c2ccccc2)Sc2nncn2N=C1c1ccc2c(c1)NC(=O)CO2` (configuration not stated), the figure is > 10 µM; as for `Cc1nc(-c2ccc3c(c2)NC(=O)CO3)c(-c2ccccc2)s1`, > 10 µM.
As for `Cc1nc(-c2ccc3c(c2)NC(=O)CO3)c(-c2ccccc2)[nH]1`, the figure is > 10 µM.
With `CCc1cc(-c2ccc3c(c2)NC(=O)CO3)n(-c2ccc(F)cc2)n1`, the IC50 is 0.96 µM.
To `O=C1COc2ccc(-c3cc(C(F)(F)C(F)(F)F)nn3-c3ccc(F)cc3)cc2N1` belongs 0.57 µM; to `CC(C)c1cc(-c2ccc3c(c2)NC(=O)CO3)n(-c2ccc(F)cc2)n1`, > 10 µM; to `N#Cc1cc(-c2ccc3c(c2)NC(=O)CO3)n(-c2ccc(F)cc2)n1`, 0.92 µM.
As for `O=C1COc2ccc(-c3cc(CO)nn3-c3ccc(F)cc3)cc2N1`, the figure is 6.8 µM; as for `O=C1COc2ccc(-c3c(C(F)(F)F)cnn3-c3ccc(F)cc3)cc2N1`, 2.7 µM.
To `O=C1COc2ccc(-c3cc(C(F)(F)F)nn3-c3ccccc3F)cc2N1` belongs 0.44 µM.
Compound `O=C1COc2ccc(-c3cc(C(F)(F)F)nn3-c3cccc(F)c3)cc2N1` gave a 50% inhibitory concentration (IC50) of 1.1 µM.
As for `O=C1COc2ccc(-c3cc(C(F)(F)F)nn3-c3ccccc3Cl)cc2N1`, the figure is 0.43 µM; as for `O=C1COc2ccc(-c3cc(C(F)(F)F)nn3-c3ccc(Cl)cc3)cc2N1`, 0.32 µM.
As for `Cc1ccc(-n2nc(C(F)(F)F)cc2-c2ccc3c(c2)NC(=O)CO3)cc1`, the figure is 0.59 µM.
The compound `CCc1ccccc1-n1nc(C(F)(F)F)cc1-c1ccc2c(c1)NC(=O)CO2` returned an IC50 of 0.7 µM.
